Experimental data published in US20020164397A1, “N-[N-(3, 3-DIMETHYLBUTYL)-L-ALPHA-ASPARTYL]-L-PHENYLALANINE 1-METHYL ESTER AS A SWEETENER IN CHEWING GUM” (priority 1998, published 2002).
Several values for one entry are separate records, joined by “and”; a condition that tells them apart may be missing. Identical values can stand only once. Where a SMILES comes first, the peptide text is derived from it.

How the values were obtained:
[1] = Sweetness intensity of chewing gums versus chewing time, trained panel of experts (0-15 scale); assay type: in vivo; conditions: for average sweetness loss rate at 6-10 minutes / average sweetness intensity at 6-10 minutes / average sweetness loss rate at 10-20 minutes / average sweetness intensity at 10-20 minutes: isosweet sweetener concentrations; for average sweetness loss rate at 6-10 minutes / average sweetness intensity at 6-10 minutes: chewing time 6-10 minutes; for average sweetness intensity at 6-10 minutes / average sweetness intensity at 10-20 minutes: scale 0-15; for average sweetness loss rate at 10-20 minutes / average sweetness intensity at 10-20 minutes: chewing time 10-20 minutes
Description: FIG. 1 is a plot of the sweetness intensity of chewing gum prepared with sugar (sucrose), saccharin, aspartame, acesulfame-K, sucralose or neotame as a function of chewing time. Each chewing gum comprises the corresponding sweetener at a sweetener concentration that provides an identical (“isosweet”) degree of sweetness. The sweetness intensity was measured by a trained panel of experts and is expressed as the amount of sweetness based on a sweetness intensity scale of 0-15 units.
The sweetness profile of neotame in chewing gum is illustrated in FIG. 1. Also illustrated in FIG. 1 is a comparison of the sweetness intensity profiles, as measured by a trained panel of experts, of chewing gums prepared with neotame, aspartame, acesulfame-K, saccharin, sucralose, and sugar (sucrose). The sweetness detected is expressed as the amount of sweetness based on a universal sweetness scale of 0-15, and the values were obtained by having subjects of the trained panel chew pieces of gum containing the sweetener and reporting perceived sweetness after various chewing intervals. Since each chewing gum was prepared with an “isosweet” concentration (i.e., same level of sweetness; e.g., 100 ppm neotame and 3000 ppm aspartame are isosweet concentrations) of the respective sweetener and the scale is a measure of absolute sweetness at any point during chewing, the different sweetener profiles can be compared directly to each other.
Table 1 summarizes the sweetness intensity loss rates and average sweetness intensities which occur at a chewing time period of between 6 and 10 minutes and those which occur at a chewing time period between 10 and 20 minutes for a variety of sweeteners. The sweetness intensity loss rate is calculated as the difference in sweetness intensities measured at any two time points divided by the number of minutes of the time interval, and approximates the mathematical slope of the downward trend of sweetness intensity over time.
These values were determined by calculating the average sweetness intensity measured at the specified evaluation times. For example, for the chewing gum comprising neotame at between 6 and 10 minutes, the average sweetness intensity is determined to be (5.2+4.6+4.2)/3=4.7.
The advantage of sweetness extension provided by neotame can also be illustrated by comparison of the sweetness intensity half-lives over time. Table 2 summarizes the half-lives of sweetness intensity of chewing gums comprising different sweeteners after the maximum sweetness intensities (around two minutes) are reached. The half-life is a measure of the time of chewing in which half of the sweetness is lost relative to the time in which the sweetness intensity maximum is achieved.
(§1) The sensory profiling of chewing gum samples was carried out using the Spectrum Method of Descriptive Analysis (Meilgaard, M., Civille, G. V., Carr, B. T, 1999. Sensory Evaluation Techniques, 3rd Ed. CRC Press, New York, p. 173-229). Extensive sensory training was conducted in order to familiarize the panel, consisting of 6-8 individuals, with a product category, exposing the panel to the flavor attributes of the category and in-depth practice by the panelists in the use of a fifteen point scale for describing intensity differences. Once trained, the method enabled the trained panelists to indicate the sensory intensity of either sweetness intensity or flavor intensity in a universal context, where 0 indicates “none” of the attribute present, 2 approximates “threshold” intensities, 5 “slight or low” level, 7.5 “moderate” intensity, 10 “strong” and 15 “extreme”.
Chewing of the gums was initiated by the panel leader while starting a timer. As the time intervals 0.25, 0.5, 1.0, 2.0, 3.0, 4.0, 6.0, 8.0, 10.0, 12.0, 16.0, and 20.0 minutes approached, the panel leader gave panelists a five second warning and then called out the time to rate the attributes. To minimize fatigue, 3-4 samples were evaluated during one session. […]

[2] = Peppermint flavor intensity of chewing gums versus chewing time, trained panel of experts (0-15 scale); assay type: in vivo
Description: FIG. 2 is a plot of peppermint flavor intensity verses chewing time of chewing gums prepared with isosweet levels of aspartame (3000 ppm) and neotame (100 ppm). The chewing gum prepared with aspartame comprised a 1.5 wt % peppermint flavor, while the four neotame chewing gums comprised peppermint flavor at concentrations of 1.5, 1.25, 1.00, and 0.75 wt %. The peppermint flavor intensity was measured by a trained panel of experts and is plotted as a function of chewing time. The peppermint flavor intensity is expressed as the amount of peppermint flavor based on a universal peppermint intensity scale of 0-15 units.
As in the case of sweetness intensity comparisons, since the chewing gums were prepared with an identical amount of flavor and the scale is a measure of absolute flavor at any point during chewing, the different flavor profiles can be compared directly to each other. The rate of flavor intensity loss of the chewing gum comprising neotame is 0.0875 flavor intensity units per minute, while that of chewing gum comprising aspartame was determined to be 0.150 flavor intensity units per minute. Thus, the rate of flavor loss of a chewing gum comprising neotame is nearly half that of the flavor loss for a chewing gum comprising aspartame at an isosweet level and containing an equal concentration of peppermint flavor.
Table 4 summarizes the half-lives of both sweetness and flavor of chewing gums prepared with aspartame (3000 ppm) with 1.5 wt % flavor and neotame (100 ppm) with 1.5, 1.25, 1.00, and 0.75 wt % flavor amounts. The half-life is the time in minutes for the intensity to fall to half of its maximum value (sweetness, 2 minutes; flavor, 4 minutes).
as §1
Chewing of the gums was initiated by the panel leader while starting a timer. As the time intervals 0.25, 0.5, 1.0, 2.0, 3.0, 4.0, 6.0, 8.0, 10.0, 12.0, 16.0, and 20.0 minutes approached, the panel leader gave panelists a five second warning and then called out the time to rate the attributes. To minimize fatigue, 3-4 samples were evaluated during one session. Samples were assessed in duplicate, presented in a balanced order, unwrapped in two ounce plastic cups, and randomly coded with three-digit numbers. The panelists were given a ten minute break between samples to minimize carry-over effects. Water, Mott's Natural Applesauce and unsalted soda crackers were given as palate cleansers.
The data was analyzed for standard ANOVA for across sample comparison of attributes at each chew time. Data was then plotted as a graph of intensities vs. chewing time yielding either a sweetness or flavor profile for the entire chew time.

[3] = relative to sucrose; cited from earlier work
[4] = chewing time in which half of the sweetness is lost relative to the sweetness intensity maximum, isosweet concentrations
[5] = 0.75% peppermint flavor, neotame 100 ppm
[6] = 1.00% peppermint flavor, neotame 100 ppm
[7] = 1.25% peppermint flavor, neotame 100 ppm
[8] = 1.50% flavor, time for intensity to fall to half of its maximum (4 minutes), aspartame 3000 ppm / neotame 100 ppm
[9] = 1.50% peppermint flavor, isosweet aspartame 3000 ppm / neotame 100 ppm
[10] = flavor amounts less than full-flavored (reduced to at least around 50%)
[11] = full-flavored chewing gum, about 4 to about 20 minutes of chewing
[12] = 1.50% flavor, time for intensity to fall to half of its maximum (2 minutes), aspartame 3000 ppm / neotame 100 ppm

Compound: OC[C@H]1O[C@H](O[C@]2(CCl)O[C@H](CCl)[C@@H](O)[C@@H]2O)[C@H](O)[C@@H](O)[C@H]1Cl [sucralose]
- average sweetness loss rate at 6-10 minutes ([1]; chewing gum): 0.52 intensity units/min
- average sweetness intensity at 6-10 minutes ([1]; chewing gum): 3.3 intensity units
- average sweetness loss rate at 10-20 minutes ([1]; chewing gum): 0.16 intensity units/min
- average sweetness intensity at 10-20 minutes ([1]; chewing gum): 1.3 intensity units
- half-life of sweetness intensity [1, 4]: 4.5 min

Compound: COC(=O)[C@H](Cc1ccccc1)NC(=O)[C@H](CC(=O)O)NCCC(C)(C)C [neotame, N-[N-(3,3-dimethylbutyl)-L-α-aspartyl]-L-phenylalanine 1-methyl ester]
- half-life of peppermint flavor intensity ([2]; 0.75% flavor, neotame 100 ppm): 33.1 min
- average flavor intensity at 4-20 minutes [2, 5]: 3.9 intensity units
- flavor loss rate at 4-20 minutes [2, 5]: 0.070 flavor intensity units per minute
- half-life of peppermint flavor intensity ([2]; 1.00% flavor, neotame 100 ppm): 31.7 min
- average flavor intensity at 4-20 minutes [2, 6]: 4.0 intensity units
- flavor loss rate at 4-20 minutes [2, 6]: 0.075 flavor intensity units per minute
- half-life of peppermint flavor intensity ([2]; 1.25% flavor, neotame 100 ppm): 31.3 min
- average flavor intensity at 4-20 minutes [2, 7]: 4.2 intensity units
- flavor loss rate at 4-20 minutes [2, 7]: 0.088 flavor intensity units per minute
- half-life of peppermint flavor intensity [2, 8]: 44.3 min
- average flavor intensity at 4-20 minutes [2, 9]: 4.6 intensity units
- flavor loss rate at 4-20 minutes [2, 9]: 0.0875 flavor intensity units per minute and 0.088 flavor intensity units per minute
- average flavor intensities at 4-20 minutes ([2]; chewing gums comprising neotame having less flavor amounts than 1.5%): around 4.0 intensity units
- average flavor intensity [2, 10]: ≥ 3.5 flavor intensity units
- average flavor loss rate [2, 10]: less than 0.1 flavor intensity units per minute
- average flavor intensity [2, 11]: ≥ 4 flavor intensity units
- average flavor loss rate [2, 11]: less than 0.1 flavor intensity units per minute
- sweetness potency (× sweeter than sucrose) [3]: about 8000 ×
- half-life of sweetness intensity ([1]; 0.75% flavor, neotame 100 ppm): 16.9 min
- half-life of sweetness intensity ([1]; 1.00% flavor, neotame 100 ppm): 20.7 min
- half-life of sweetness intensity ([1]; 1.25% flavor, neotame 100 ppm): 17.2 min
- half-life of sweetness intensity [1, 12]: 17.0 min
- sweetness intensity at 6 minutes ([1]; chewing gum, 100 ppm neotame, 6 minutes of chewing): 5.2 sweetness intensity units
- sweetness intensity at 10 minutes ([1]; chewing gum, 100 ppm neotame, 10 minutes of chewing): 4.2 sweetness intensity units
- sweetness intensity at 8 minutes ([1]; chewing gum, 100 ppm neotame, evaluation time between 6 and 10 minutes): 4.6 sweetness intensity units
- half-life of sweetness intensity [1, 4]: 14.9 min

Compound: CC1=CC(=O)[N-]S(=O)(=O)O1.[K+] [acesulfame-K, the potassium salt of 3,4-dihydro-6-methyl-1,2,3-oxathiazine-4-one-2,2-dioxide]
- average sweetness loss rate at 6-10 minutes ([1]; chewing gum): 0.45 intensity units/min
- average sweetness intensity at 6-10 minutes ([1]; chewing gum): 4.3 intensity units
- average sweetness loss rate at 10-20 minutes ([1]; chewing gum): 0.26 intensity units/min
- average sweetness intensity at 10-20 minutes ([1]; chewing gum): 2.0 intensity units
- half-life of sweetness intensity [1, 4]: 5.5 min

Compound: COC(=O)[C@H](Cc1ccccc1)NC(=O)[C@@H](N)CC(=O)O [aspartame] (HELM PEPTIDE1{D.F.[CO[*:1]]}$$$$V2.0)
- half-life of peppermint flavor intensity [2, 8]: 19.7 min
- average flavor intensity at 4-20 minutes [2, 9]: 4.2 intensity units
- flavor loss rate at 4-20 minutes [2, 9]: 0.150 flavor intensity units per minute
- half-life of sweetness intensity [1, 12]: 7.6 min
- average sweetness loss rate at 6-10 minutes ([1]; chewing gum): 0.52 intensity units/min
- average sweetness intensity at 6-10 minutes ([1]; chewing gum): 4.6 intensity units
- average sweetness loss rate at 10-20 minutes ([1]; chewing gum): 0.25 intensity units/min
- average sweetness intensity at 10-20 minutes ([1]; chewing gum): 2.3 intensity units
- half-life of sweetness intensity [1, 4]: 6.4 min

Compound: OC[C@H]1O[C@@](CO)(O[C@H]2O[C@H](CO)[C@@H](O)[C@H](O)[C@H]2O)[C@@H](O)[C@@H]1O [sucrose]
- average sweetness loss rate at 6-10 minutes ([1]; chewing gum): 0.45 intensity units/min
- average sweetness intensity at 6-10 minutes ([1]; chewing gum): 2.1 intensity units
- average sweetness loss rate at 10-20 minutes ([1]; chewing gum): 0.11 intensity units/min
- average sweetness intensity at 10-20 minutes ([1]; chewing gum): 0.6 intensity units
- half-life of sweetness intensity [1, 4]: 3.5 min

Compound: O=C1NS(=O)(=O)c2ccccc21 [saccharin]
- average sweetness loss rate at 6-10 minutes ([1]; chewing gum): 0.52 intensity units/min
- average sweetness intensity at 6-10 minutes ([1]; chewing gum): 3.1 intensity units
- average sweetness loss rate at 10-20 minutes ([1]; chewing gum): 0.15 intensity units/min
- average sweetness intensity at 10-20 minutes ([1]; chewing gum): 1.2 intensity units
- half-life of sweetness intensity [1, 4]: 4.5 min
